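Step 1: Grow cells in 96-well plates. Step 2: Expose to compound for 48 hours at 5 concentrations. Step 3: Interpolate endpoints linearly; if unreached, use highest concentration. GI50: concentration for 50% inhibition of growth. The concentration for full growth arrest is given as TGI.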
Assays:
Test in all cases: NCI-60 cell line screen, 48 h
[1] = system: A549 NSCLC
[2] = system: UO-31 renal
[3] = system: TK-10 renal
[4] = system: MDA-MB-435
[5] = system: MOLT-4 leukemia
[6] = system: OVCAR-5 ovarian
[7] = system: CCRF-CEM leukemia
[8] = system: UACC-257 melanoma
[9] = system: BT-549 breast
[10] = system: SF-539 CNS

SMILES	TGI [1] [µM]	TGI [2] [µM]	TGI [3] [µM]	TGI [4] [µM]	TGI [5] [µM]	TGI [6] [µM]	TGI [7] [µM]	TGI [8] [µM]	TGI [9] [µM]	TGI [10] [µM]	GI50 [1] [µM]	GI50 [2] [µM]	GI50 [3] [µM]	GI50 [4] [µM]	GI50 [5] [µM]	GI50 [6] [µM]	GI50 [7] [µM]	GI50 [8] [µM]	GI50 [9] [µM]	GI50 [10] [µM]
COc1cc2c(cc1OC)C(Cl)C(c1ccc(F)cc1)=C2Cl (stereo not given)	32.8	33.3	28.5	23.6	13.1	30.2	29.1	28.8	15.6	30.4										
COc1cc2c(cc1OC)-c1cc(OC)c(OC)cc1C(CN(C)C)C2 (stereo not given)	> 10	> 10	> 10	> 10	> 10	> 10	> 10	> 10	> 10	> 10	> 10	> 10	> 10	> 10	> 10	> 10	> 10	> 10	> 10	> 10
O=C(NC1CCCCC1)NS(=O)(=O)c1ccc(N2N=C3c4ccccc4CC3C2c2ccc(Cl)cc2)cc1 (stereo not given)	47	40.7	19.8	50.3	19.4	80.4	23.8	53	25.2	31.9	17.9	20	4.5	18.5	4.04	25.5	3.85	19.7	7.01	12.8
c1ccc(-c2n(Cc3ccc4ccccc4n3)cc[n+]2Cc2ccc3ccccc3c2)cc1	12.1	13.2	4.11	2.5	4.38	7.27	6.18	3.03	3.7	4.64	2.91	2.93	1.61	0.799	1.64	2.05	1.22	0.557	1.63	1.45
C[C@@H]1CC[C@H]2C(C)(C)[C@H]3C[C@@]12CC[C@@]3(C)O	> 100	> 100	> 100	> 100	> 100	> 100	> 100	> 100	> 100	> 100										
NC(=S)N/N=C\c1nccc2c(C(F)(F)F)cccc12	3.26	3.11	32.1	31.5	15.6	27.6	12.1	0.94	7.71	0.857	0.293	0.245	0.516	0.481	0.355	0.445	0.278	0.29	0.395	0.243
CC[C@@H](c1ccc(O)c(O)c1)[C@@H](CC)c1ccc(O)c(O)c1	> 100	21.4	70.3	15.1	22.5	37.8	9.39	38.1	26.1	23.6	31.9	4.12	26	3.47	4.21	19.5	2.88	14.9	13.2	6.66
COC(=O)[C@]12CC[C@@H](C)[C@H](C)[C@@H]1C1=CC[C@@H]3[C@@]4(C)C[C@@H](O)[C@H](O)[C@@](C)(CO)[C@@H]4[C@H](O)C[C@@]3(C)[C@]1(C)CC2	45.2	29.8	31.5	27.3	25.6	36.4	36.9	35.8	26.4	29	15.8	6.3	16.8	13	4.58	17.9	7.77	16.8	12.6	14
COC(=O)c1cc2oc(/C=C3/SC(=S)N(NC(C)=O)C3=O)cc2n1C	> 100	92.7	97.4	> 100	62.1	54.9	76	> 100	22.7	29.1	28.3	14.5	26	17.6	11.3	21.7	11.8	30.1	6.13	12.9
COc1ccc(CN2C(=O)C(Cl)=C(Nc3cccc(C(F)(F)F)c3)C2=O)cc1	> 100	32	46.3	9.12	9.29	48.7	17.4	27.6	14.8	12	8.54	5.54	16.8	2.77	2.39	18	2.54	11.1	1.58	1.77
